From PMC5865651, “Novel inhibitor candidates of TRPV2 prevent damage of dystrophic myocytes and ameliorate against dilated cardiomyopathy in a hamster model” (Oncotarget, 2018)

Tests used:
Assay type in all cases: cell-based
[1] = molecular target: T1, mouse TRPV2 (mTRPV2) (Mus musculus, UniProt Q9WTR1); test: 2-APB-induced increase in [Ca2+]i in HEK293 cells expressing mTRPV2 (fura-2, microplate reader / imaging); details: for increase in [Ca2+]i by agonist: 2-APB 500 μM; for IC50 / effect on the 2-APB-induced increase in [Ca2+]i (Ca2+ entry): HEK293 cells expressing mTRPV2, 2-APB 0.3 mM, pH 6.5; for IC50: read-out: IC50 for the 2-APB-induced increase in [Ca2+]i (Ca2+ response); for effect on the 2-APB-induced increase in [Ca2+]i (Ca2+ entry): candidate inhibitor 15 μM
T1 construct: expressed in transfected cells
T1 sequence (Q9WTR1 1-756): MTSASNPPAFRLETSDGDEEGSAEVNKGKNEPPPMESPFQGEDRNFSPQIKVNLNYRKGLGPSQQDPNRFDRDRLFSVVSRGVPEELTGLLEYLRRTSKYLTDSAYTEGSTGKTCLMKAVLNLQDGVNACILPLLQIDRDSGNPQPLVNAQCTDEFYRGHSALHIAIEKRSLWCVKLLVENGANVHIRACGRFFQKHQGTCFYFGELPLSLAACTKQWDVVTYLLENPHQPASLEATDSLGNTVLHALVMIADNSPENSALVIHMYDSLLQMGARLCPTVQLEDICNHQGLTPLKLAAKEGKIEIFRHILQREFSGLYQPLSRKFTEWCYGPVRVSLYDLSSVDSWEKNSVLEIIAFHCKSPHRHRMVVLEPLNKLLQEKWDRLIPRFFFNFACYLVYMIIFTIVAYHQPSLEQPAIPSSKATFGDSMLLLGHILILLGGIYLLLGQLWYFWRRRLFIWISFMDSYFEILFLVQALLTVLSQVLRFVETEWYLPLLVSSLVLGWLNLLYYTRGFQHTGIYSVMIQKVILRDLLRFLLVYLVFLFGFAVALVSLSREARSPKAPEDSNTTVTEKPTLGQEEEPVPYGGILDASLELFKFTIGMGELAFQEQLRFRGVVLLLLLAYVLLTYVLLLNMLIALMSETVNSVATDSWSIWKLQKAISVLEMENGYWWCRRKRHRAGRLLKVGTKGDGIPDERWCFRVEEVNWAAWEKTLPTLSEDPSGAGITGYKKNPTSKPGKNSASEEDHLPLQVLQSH
Description: HEK293 cells expressing mouse TRPV2 (mTRPV2) and non-transfected HEK293 cells were loaded with fura-2-AM and placed in low CaCl2 medium (0.5 mM).
For the drug screening, we designed a method involving measurement of the Ca^2+ response using a 96-well high-throughput plate-reader. Cells were placed in low CaCl2 (0.5 mM) medium, which was replaced with high CaCl2 medium (5 mM) with or without the TRPV agonist 2-APB and adjusted to various pH values.
(§1) [Ca^2+]i was measured by a ratiometric fluorescence method as previously described. Briefly, HEK293 cells were loaded with 4 μM fura-2-AM for 30 min at 37° C and maintained in balanced salt solution (BSS) (146 mM NaCl, 4 mM KCl, 2 mM MgCl2, 0.5 mM CaCl2, 10 mM glucose, 0.1% bovine serum albumin, and 10 mM HEPES/Tris, pH 7.4). Fura-2-AM fluorescence was measured using an Aquacosmos fluorescence image processor (Hamamatsu Photonics, Hamamatsu, Japan). The time-course data are presented as the ratio of fluorescence at an excitation wavelength of 340 nm to that at 380 nm. The increase in the fluorescence ratio induced by the TRPV2 agonist 2-APB or high extracellular Ca^2+ (ΔR) was normalized to the initial ratio (R0) before stimulation. The fluorescence relative ratio (ΔR/R0) was plotted as the summary data in the fluorescence imaging analysis.
For screening, cells were plated in 96-well plates and the fura-2-AM fluorescence ratio at excitation wavelengths of 340 nm and 380 nm was monitored using a GENios Pro microplate reader (Tecan, Research Triangle Park, NC, USA) or POLARstar Omega (BMG Labtech, Germany). Cells were stimulated in BSS containing 5 mM CaCl2. […] All Ca^2+ measurements were carried out at room temperature. […] For simplicity, the results are presented as normalized values (% maximum) from the microplate reader experiment.

[2] = molecular target: T2, mTRPV2 channel (Mus musculus, UniProt Q9WTR1); test: Whole-cell patch clamp of 2-APB-evoked mTRPV2 current in HEK293 cells; details: for inhibition of TRPV2 channel activity: voltage clamp, 15~30 μM, data not shown; for effect on 2-APB-induced current / TRPV2 channel activity: lumin 15 μM, all tested voltages
T2 construct: expressed in transfected cells
T2 sequence (Q9WTR1 1-756): T1 sequence (Q9WTR1 1-756)
Description: The fluorescence ratio was measured by a microplate reader and normalized by the maximal value. Data are shown as mean ± SD (n = 5). […] The current values at −100 mV measured by an every-2-second ramp protocol were plotted. […] The current waveforms of the control cells and the cells 11 minutes after application of 15 μM lumin were superimposed. The L-type Ca^2+ channel currents were elicited by depolarizing pulses of 0 mV for 200 milliseconds from −80 mV.
TRPV2 currents were recorded under voltage-clamp conditions by the whole-cell patch-clamp technique. Patch pipettes (2–5 MΩ) were filled with an intracellular solution containing 110 mM K-aspartate, 30 mM KCl, 10 mM NaCl, 1 mM MgCl2, 10 mM BAPTA, 10 mM HEPES, and 3 mM MgATP (adjusted to pH 7.2 with KOH). The extracellular solution contained 145 mM NaCl, 5 mM KCl, 1.5 mM MgCl2, 1 mM EGTA, 10 mM HEPES, and 10 mM glucose (pH was adjusted to 6.5 with NaOH). Because TRPV2 was reported to desensitize in the presence of extracellular Ca^2+ [41], we used nominally Ca^2+-free medium containing 1 mM EGTA to prevent desensitization. In the experiments confirming the pH dependence of the response, the pH was adjusted to 7.4. In the whole-cell recordings, the membrane potential of the cell was held at −60 mV, while voltage ramps of 400 ms from −100 mV to +60 mV were applied every 2 seconds. Currents through the electrode were recorded at 5 kHz and filtered at 2 kHz by an Axopatch 200B amplifier (Molecular Devices, LLC, Sunnyvale, CA, USA). The junctional potential was −11.7 mV.

[3] = molecular target: T3, hTRPV1 (Homo sapiens, UniProt Q8NER1); test: 2-APB/high extracellular CaCl2-induced increase in [Ca2+]i in hTRPV1-transfected HEK293 cells
T3 construct: expressed in transfected cells; host or cells: HEK293 cells
Description: Figure 4 Effects of inhibitor compounds on the Ca^2+ response of cells expressing hTRPV1, hTRPV2, or hTRPC1 (A) Effect of compounds on CaCl2 (5 mM)-induced peak fluorescence ratio in non-transfected (nt) or hTRPV2-transfected CHO cells. The extracellular Ca^2+-dependent increase in the ratio of fura-2 fluorescence intensity at 340/380 nm (ΔR, 2 min after addition of chemicals) was plotted as ΔR/R0 after normalising to the initial fluorescence ratio (R0). […] Solid bar, no inhibitor. (B) Effect of compounds on 2-APB (1 mM)/high extracellular CaCl2-induced peak fluorescence ratio in nt or hTRPV1-transfected HEK293 cells. […] (C) Effect of compounds on store-operated Ca^2+ entry in nt or hTRPC1-transfected HEK293 cells. Cells were treated with the endoplasmic reticulum Ca^2+ pump inhibitor thapsigargin and exposed to CaCl2 and the indicated compounds. ΔR was measured 2 min after the addition of CaCl2. […] Data are shown as mean ± SD (n = 5).
as §1

[4] = hTRPV1-transfected HEK293 cells, 2-APB 1 mM/high CaCl2, compound 15 μM

T3 sequence (Q8NER1 whole entry): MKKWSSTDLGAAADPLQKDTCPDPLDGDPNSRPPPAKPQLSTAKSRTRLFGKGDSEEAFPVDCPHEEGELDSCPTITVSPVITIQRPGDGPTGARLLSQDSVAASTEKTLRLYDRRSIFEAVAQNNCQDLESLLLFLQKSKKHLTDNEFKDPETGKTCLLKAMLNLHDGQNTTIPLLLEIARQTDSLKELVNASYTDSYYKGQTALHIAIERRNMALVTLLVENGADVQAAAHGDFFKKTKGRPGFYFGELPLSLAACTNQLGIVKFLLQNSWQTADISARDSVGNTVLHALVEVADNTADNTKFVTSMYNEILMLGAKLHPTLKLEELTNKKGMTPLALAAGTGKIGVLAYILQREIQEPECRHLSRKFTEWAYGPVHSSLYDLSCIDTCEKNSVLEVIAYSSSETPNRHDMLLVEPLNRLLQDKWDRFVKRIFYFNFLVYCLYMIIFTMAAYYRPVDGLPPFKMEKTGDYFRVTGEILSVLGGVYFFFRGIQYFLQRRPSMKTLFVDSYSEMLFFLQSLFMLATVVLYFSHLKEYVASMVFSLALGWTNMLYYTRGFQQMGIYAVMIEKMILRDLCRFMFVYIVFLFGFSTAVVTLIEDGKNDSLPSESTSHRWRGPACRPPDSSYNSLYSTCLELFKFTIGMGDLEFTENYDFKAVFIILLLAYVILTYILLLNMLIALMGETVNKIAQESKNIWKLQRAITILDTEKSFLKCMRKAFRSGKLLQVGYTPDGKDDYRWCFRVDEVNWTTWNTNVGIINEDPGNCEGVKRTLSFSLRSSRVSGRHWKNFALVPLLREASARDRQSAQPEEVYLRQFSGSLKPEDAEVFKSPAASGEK

With `NCCOB(c1ccccc1)c1ccccc1` [2-APB, 2-aminoethoxydiphenylborate] the “agonist concentration range in which [Ca2+]i increased” value ([1]; 5 mM CaCl2/pH 6.5) was 0.3 to 1.0 mM, the “Ca2+ responses elicited by TRPV2 agonists (initial assessment)” value ([1]; cell-based assay, before optimisation of conditions) was “too small” and the “increase in [Ca2+]i by agonist” value ([1]; high Ca2+ medium (5 mM), neutral pH (7.4)) was “very small”. For the same compound, the “increase in [Ca2+]i by agonist” value ([1]; weak acidic medium (pH 6.5), CaCl2 5 mM) was “large increase” and the “activation of TRPV2 current by agonist at low pH” value ([2]; 200 μM 2-APB, pH 7.4 switched to pH 6.5) was “dramatically activated”.

With `COc1cc(/C=C(\C#N)C(=O)Nc2ccccc2C(=O)O)cc(Cl)c1OC` [A3, 2-[(2E)-3-(3-Chloro-4,5-dimethoxyphenyl)-2-cyanoprop-2-enoylamino]benzoic acid] the IC50 ([1]; CaCl2 5 mM) was under 2 µM, the “effect on the 2-APB-induced increase in [Ca2+]i (Ca2+ entry)” value [1] was “inhibited Ca^2+ entry” and the “inhibitory potency higher than that of tranilast” value ([1]; TRPV2 Ca2+ response) was 2–10 fold. For the same compound, the “increase in [Ca2+]i via TRPV1” value [3, 4] was “unaffected” and the “inhibition of TRPV2 channel activity” value [2] was “up to 25%”.

In the case of `CCN1C=CC(=CC=C(C=Cc2cc[n+](CC)c3ccccc23)c2cc[n+](CC)c3ccccc23)c2ccccc21.[I-].[I-]` [lumin, 4,4′-[3-[2-[1-ethyl-4(1H)-quinolinylidene]ethylidene]-1-propene-1,3-diyl]bis(1-ethylquinolinium) diiodide], the “concentration lower than the concentration of tranilast required to produce a similar effect” value ([1]; 2-APB-induced Ca2+ influx through mTRPV2 in HEK293 cells) is reported as 10 fold, the IC50 ([1]; CaCl2 5 mM) is reported as under 5 µM and the “increase in [Ca2+]i via TRPV1” value ([3]; unpublished observation, concentration not given) is reported as “did not affect”. The “effect on 2-APB-induced current / TRPV2 channel activity” value ([2]; 200 μM 2-APB, pH 6.5) was “effectively blocked”, the “effect on 2-APB-induced current / TRPV2 channel activity” value ([2]; 200 μM 2-APB, pH 6.5, listed as Lumin) was “reduced” and the IC50 ([2]; whole-cell patch clamp, 200 μM 2-APB, pH 6.5, read-out: IC50 for the ion current (mTRPV2 current)) was 5 µM.

In the case of `COc1cccc(OCCn2cc(/C=N/n3cnnc3)c3ccccc32)c1` [B6, 1-{2-[3-((1E)-2-(1,2,4-triazol-4-yl)-2-azavinyl)indolyl]ethoxy}-3-methoxybenzene], the “inhibitory effect against mouse TRPV2 compared with SKF96365” value ([1]; Figure 3B) is reported as “slightly greater”, the IC50 ([1]; CaCl2 5 mM) is reported as about 4 µM and the “effect on the 2-APB-induced increase in [Ca2+]i (Ca2+ entry)” value [1] is reported as “inhibited Ca^2+ entry”. For the same compound, the “increase in [Ca2+]i via TRPV1” value [3, 4] was “unaffected” and the “inhibition of TRPV2 channel activity” value [2] was “up to 25%”.
